Patent publication US11472778B2, “Hepatitis C virus NS3/4A protease inhibitors” (priority 2017, dated 2022)
Where two headings read alike, the source gives them in different places.

Experiments:
[1] = molecular target: T1, GT1a D168A NS3/4A protease (UniProt P27958, C1185S/D1194A, species not given); type: biochemical, Hepatitis C virus; details: read-out: Ki (nM) GT1a D168A NS3/4A Protease
T1 construct: Ki (nM) GT1a D168A NS3/4A Protease
Experimental: (§1) For each assay, 2 nM of NS3/4A protease (GT1, D168A and GT3) was pre-incubated at room temperature for 1 h with increasing concentration of inhibitors in assay buffer [50 mM Tris, 5% glycerol, 10 mM DTT, 0.6 mM LDAO, and 4% dimethyl sulfoxide]. Inhibition assays were performed in nonbinding surface 96-well black half-area plates (Corning) in a reaction volume of 60 μt. […] Three independent data sets were collected for each inhibitor with each protease construct.
as §1, with “(GT1a” for “(GT1, D168A”, “D168A)” for “GT3)”, “(50” for “[50”, “sulfoxide, pH 7.5).” for “sulfoxide].”, “non-binding” for “nonbinding”, “μL.” for “μt.”
(§2) For each assay, 2 nM of NS3/4A protease (GT1a, R155K and D168A) was pre-incubated at room temperature for 1 h with increasing concentration of inhibitors in assay buffer (50 mM Tris, 5% glycerol, 10 mM DTT, 0.6 mM LDAO, and 4% dimethyl sulfoxide, pH 7.5). Inhibition assays were performed in non-binding surface 96-well black half-area plates (Corning) in a reaction volume of 60 μL. […] Three independent data sets were collected for each inhibitor with each protease construct. […] Gibbs free energy of binding was calculated using the following equation: ΔG=RTlnKi

[2] = molecular target: GT1a D168A NS3/4A protease; type: biochemical, Hepatitis C virus; details: Table 3; Ki D168A relative to GT1a WT
Experimental: as §1
(§3) For each assay, 2 nM of NS3/4A protease (GT1a and D168A) was pre-incubated at room temperature for 1 h with increasing concentration of inhibitors in assay buffer (50 mM Tris, 5% glycerol, 10 mM DTT, 0.6 mM LDAO, and 4% dimethyl sulfoxide, pH 7.5). Inhibition assays were performed in non-binding surface 96-well black half-area plates (Corning) in a reaction volume of 60 μL. […] Three independent data sets were collected for each inhibitor with each protease construct.
as §2

[3] = molecular target: T2, wild-type GT1a NS3/4A protease (UniProt P27958, C1185S, species not given); type: biochemical, Hepatitis C virus; details: read-out: Ki (nM) GT1a WT NS3/4A Protease
T2 construct: Ki (nM) GT1a WT NS3/4A Protease
Experimental: as §1, §3, §2

GT3a NS3/4A protease = molecular target: T3, GT3a NS3/4A protease (Hepatitis C virus genotype 3a, UniProt Q81495); test: biochemical; details: for Ki (Fold change) GT3a NS3/4A Protease: Ki GT3a relative to GT1a WT
T3 construct: drug-resistant variant D168A, and GT3a NS3/4A protease; made in house; host or cells: Escherichia coli BL21(DE3)
T3 sequence (Q81495 1033-1214): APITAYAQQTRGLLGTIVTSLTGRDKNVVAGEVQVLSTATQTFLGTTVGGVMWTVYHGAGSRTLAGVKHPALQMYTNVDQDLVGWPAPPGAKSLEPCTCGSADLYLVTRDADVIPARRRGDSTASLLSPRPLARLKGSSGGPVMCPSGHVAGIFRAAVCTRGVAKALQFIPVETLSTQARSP
Experimental: as §1

[4] = system: HCV replicon D168A variant in Huh7 cells; test: microbe, parasite or virus in culture; type: cell-based, Hepatitis C virus; details: for EC50: Hepatitis C virus; for Replicon EC50 (Fold change) D168A: Table 4, relative to WT replicon
Experimental: (§4) Mutations (R155K, A516T, D168A and D168V) were constructed by site-directed mutagenesis using a Con1 (genotype 1b) luciferase reporter replicon containing the H77 (genotype 1a) NS3 sequence.
(§5) Replicon RNA of each protease variant was introduced into Huh7 cells by electroporation. Replication was then assessed in the presence of increasing concentrations of protease inhibitors by measuring luciferase activity (relative light units) 96 h after electroporation.
(§6) Mutations (R155K, D168A and A156T) were constructed by site-directed mutagenesis using a Con1 (genotype 1b) luciferase reporter replicon containing the H77 (genotype 1a) NS3 sequence.^6 Replicon RNA of each protease variant was introduced into Huh7 cells by electroporation. Replication was then assessed in the presence of increasing concentrations of protease inhibitors by measuring luciferase activity (relative light units) 96 h after electroporation.

[5] = system: HCV replicon R155K variant in Huh7 cells; test: microbe, parasite or virus in culture; type: cell-based, Hepatitis C virus; details: for EC50: Hepatitis C virus; for Replicon EC50 (Fold change) R155K: Table 4, relative to WT replicon
Experimental: as §4, §5, §6

[6] = system: HCV replicon A156T variant in Huh7 cells; test: microbe, parasite or virus in culture; type: cell-based, Hepatitis C virus; details: for EC50: Hepatitis C virus; for Replicon EC50 (Fold change) A156T: Table 4, relative to WT replicon
Experimental: as §4, §5, §6

[7] = system: wild-type HCV replicon in Huh7 cells; test: Cell-based drug susceptibility (replicon) assay, wild-type; details: Hepatitis C virus, read-out: Replicon EC50 (nM) WT
Experimental: as §4, §5, §6

[8] = system: HCV replicon D168V variant in Huh7 cells; test: microbe, parasite or virus in culture; type: cell-based, Hepatitis C virus; details: for EC50: Hepatitis C virus; for Replicon EC50 (Fold change) D168V: Table 4, relative to WT replicon
Experimental: as §4
Replicon RNA of each protease variant was introduced into Huh7 cells by electroporation. Replication was then assessed in the presence of increasing concentrations of protease inhibitors by measuring luciferase activity (relative light units) 96 h after electroporation. […]

[9] = Huh-7, 96 h, read-out: Replicon EC50 (nM) D168A, Table 2, Huh7 cells, luciferase 96 h
[10] = Huh-7, read-out: Replicon EC50 (nM) D168A, Table 4
[11] = Huh-7, 96 h, read-out: Replicon EC50 (nM) R155K, Table 2, Huh7 cells, luciferase 96 h
[12] = Huh-7, read-out: Replicon EC50 (nM) R155K, Table 4
[13] = Huh-7, 96 h, read-out: Replicon EC50 (nM) A156T, Table 2, Huh7 cells, luciferase 96 h
[14] = Huh-7, read-out: Replicon EC50 (nM) A156T, Table 4
[15] = Huh-7, 96 h, Table 2, Huh7 cells, luciferase 96 h
[16] = Huh-7, 96 h, read-out: Replicon EC50 (nM) D168V, Table 2, Huh7 cells, luciferase 96 h
[17] = Huh-7, read-out: Replicon EC50 (nM) D168V, Table 4

SMILES | Ki ([1]; Table 1) [nM] | Ki ([1]; Table 3) [nM] | Ki (Fold change) GT1a D168A NS3/4A Protease [2] | Ki ([3]; Table 1) [nM] | Ki ([3]; Table 3) [nM] | Ki (GT3a NS3/4A protease) [nM] | Ki (Fold change) GT3a NS3/4A Protease (GT3a NS3/4A protease; Table 3) | EC50 [4, 9] [nM] | EC50 [4, 10] [nM] | Replicon EC50 (Fold change) D168A [4] | EC50 [5, 11] [nM] | EC50 [5, 12] [nM] | Replicon EC50 (Fold change) R155K [5] | EC50 [6, 13] [nM] | EC50 [6, 14] [nM] | Replicon EC50 (Fold change) A156T [6] | EC50 [7, 15] [nM] | EC50 ([7]; Huh-7, Table 4) [nM] | EC50 [8, 16] [nM] | EC50 [8, 17] [nM] | further results
COc1ccc2nc(C(F)(F)F)c(O[C@@H]3C[C@H]4C(=O)N[C@]5(C(=O)NS(=O)(=O)C6CC6)C[C@H]5/C=C\CCCCC[C@H](NC(=O)OC(C)(C)C)C(=O)N4C3)nc2c1 [Compound 18d] | 157 | 157 ± 12 | (12) fold | 13.3 | 13.3 | 344 | (26) fold | 16.8 | 16.8 | (8) fold | 3.45 | 3.45 | (2) fold | 36.2 | 36.2 | (18) fold | 1.98 | 1.98 | 17.1 | 17.1 | Replicon EC50 (Fold change) D168V [8]: (9) fold
CCc1nc2ccc(OC)cc2nc1O[C@@H]1C[C@H]2C(=O)N[C@]3(C(=O)NS(=O)(=O)C4CC4)C[C@H]3/C=C\CCCCC[C@H](NC(=O)OC3CCCC3)C(=O)N2C1 [Compound 22a, Cyclopentyl ((2R,6S,13aS,14aR,16aS,Z)-14a-((cyclopropylsulfonyl)carbamoyl)-2-((3-ethyl-7-methoxyquinoxalin-2-yl)oxy)-5,16-dioxo-1,2,3,5,6,7,8,9,10,11,13a,14,14a,15,16,16a-hexadecahydrocyclopropa[e]pyrrolo[1,2-a][1,4]diazacyclopentadecin-6-yl)carbamate] | 52.3 | 52.3 ± 3.2 | (42) fold | 1.24 | 1.24 | 211 | (170) fold | 3.6 | 3.6 | (26) fold | 2.08 | 2.08 | (15) fold | 11.8 | 11.8 | (84) fold | 0.14 | 0.14 | 11.9 | 11.9 | Replicon EC50 (Fold change) D168V [8]: (85) fold
COc1ccc2nc(C(F)(F)F)c(O[C@@H]3C[C@H]4C(=O)N[C@]5(C(=O)NS(=O)(=O)C6(C)CC6)C[C@H]5/C=C\CCCCC[C@H](NC(=O)OC(C)(C)C)C(=O)N4C3)nc2c1 [Compound 19d, tert-Butyl ((2R,6S,13aS,14aR,16aS,Z)-2-((7-methoxy-3-(trifluoromethyl)quinoxalin-2-yl)oxy)-14a-(((1-methylcyclopropyl)sulfonyl)carbamoyl)-5,16-dioxo-1,2,3,5,6,7,8,9,10,11,13a,14,14a,15,16,16a-hexadecahydrocyclopropa[e]pyrrolo[1,2-a][1,4]diazacyclopentadecin-6-yl)carbamate] | 118 | 118 ± 13 | (20) fold | 5.77 | 5.77 | 231 | (40) fold | 8.64 | 8.64 | (6) fold | 2.3 | 2.3 | (2) fold | 20.5 | 20.5 | (13) fold | 1.52 | 1.52 | 8.31 | 8.31 | Ki (GT3a NS3/4A protease; read-out: Ki (nM) GT3a NS3/4A Protease, Table 3): 231 ± 74 nM; Replicon EC50 (Fold change) D168V [8]: (5) fold
